Source: EP0974593A1, “Artemisinin derivatives as antiparasitic agents” (The Hong Kong University of Science & Technology, priority 1998, dated 2000)
Converted amounts (≈) assume the structure as drawn. Where two headings read alike, the source gives them in different places.

Tests used:
[1] = system: Plasmodium Falciparum W2 strain (chloroquine resistant); experiment: In vitro activity against Plasmodium falciparum, 3H-hypoxanthine incorporation assay, W2 strain; assay type: cell-based; conditions: W2, 66 h; for IC50 / IC90: Plasmodium falciparum
Excerpt: (§1) (a) InVitro Activity against Plasmodium Falciparum
(§2) Two parasite strains - W2 resistant to chloroquine, and D6 sensitive to chloroquine but […] were used. In Table I below, the best compounds should show no cross resistance between the two strains.
(§3) The assay relies on incorporation of radiolabelled hypoxanthine by the parasite and inhibition of incorporation is attributed to activity of known or candidate antimalarial drugs. For each assay, proven antimalarials such as chloroquine, mefloquine, quinine, artemisinin and pyrimethamine were used as controls. The incubation period was 66 hours, and the starting parasitemia was 0.2% with 1% hematocrit. The medium was an RPMI-1640 culture with no folate or p-aminobenzoic acid. Albumax rather than 10% normal heat inactivated human plasma was used as, with Albumax, less protein binding is observed, and compounds elicit slightly higher activities in this model. If a compound was submitted with no prior knowledge of activity, it was dissolved directly in dimethyl sulphoxide (DMSO), and diluted 400 fold with complete culture medium. […]. These dilutions were performed automatically by a Biomek 1000 Liquid Handling System in 96-well microtiter plates. The diluted drugs were then transferred to test plates, 200 µL of parasitized erythrocytes were added, and incubated at 37°C in a controlled environment of 5% CO2, 5% O2 and 90% N2. After […], 25 µL of ^3H-hypoxanthine was added, and the plates incubated for an additional 24 hours. After 66 hours, the plates were frozen at -70°C to lyse the red cells, and then thawed and harvested onto glass fiber filter mats in a 96-well harvester. The filter mats were then counted in a scintillation counter. For each drug, the concentration response profile was determined and 50% and 90% inhibitory concentrations (IC50, IC90 […]) were determined by a non-linear logistic dose response analysis program.
(§4) A prescreen format can be used wherein a 3-dilution assay may be used to determine activity at high medium or low concentrations. […]. These were performed in duplicate on a 96-well format plate with 14 test compounds and one known (standard) compound per plate. The system was automated with a Biomek diluter for mixing and diluting the drugs, and adding drugs and parasites to a test plate.
(§5) In the prescreen format, if the ANALYSIS FIELD (AF) has a "<", then the compound was "very active" and the IC values are most likely to be below the last dilution value (in nanograms/ml), which is listed next to AF. In most cases, these compounds were run again at lower starting concentration to determine the true IC value. If the AF has a ">", then the IC value is greater than the prescreen dilution value; thus "AF>250" means that the IC value is greater than 250 ng ml^-1 and no further screening is carried out. In such cases, values of 0.00 are entered for IC values.

[2] = system: Plasmodium Falciparum D6 strain (chloroquine sensitive); experiment: In vitro activity against Plasmodium falciparum, 3H-hypoxanthine incorporation assay, D6 strain; assay type: cell-based; conditions: D6, 66 h; for IC50 / IC90: Plasmodium falciparum; for IC50: read-out: In vitro activity: IC50; for IC90: read-out: In vitro activity: IC90
Excerpt: as §1, §2, §3, §4, §5

[3] = read-out: In vitro activity: IC50, W2 strain (chloroquine resistant), 66 hours incubation, Albumax medium
[4] = read-out: In vitro activity: IC90, W2 strain (chloroquine resistant), 66 hours incubation, Albumax medium
[5] = D6 strain (chloroquine sensitive, resistant to mefloquine), 66 hours incubation, Albumax medium

Row | SMILES | IC50 ([1]; read-out: In vitro activity: IC50) | IC90 ([1]; read-out: In vitro activity: IC90) | IC50 [2] | IC90 [2] | IC50 [1, 3] | IC90 [1, 4] | IC50 [2, 5] | IC90 [2, 5] | In vitro activity: (IC10) [1] | In vitro activity: (IC10) [2]
1 | C[C@@H]1CC[C@H]2[C@@H](C)C(=O)N[C@@H]3O[C@@]4(C)CC[C@@H]1[C@]32OO4 [Example 1, 11-azaartemisinin] | 1.73 ng/mL (≈ 6.15 nM) | 2.24 ng/mL (≈ 7.96 nM) | 2.6 ng/mL (≈ 9.24 nM) | 3.6 ng/mL (≈ 12.8 nM) |  |  |  |  |  | 
2 | C[C@@H]1CC[C@H]2[C@@H](C)C(=O)N(Cc3ccccc3F)[C@@H]3O[C@@]4(C)CC[C@@H]1[C@@]23OO4 [Example 2, 11-aza-N-(2-fluorobenzyl)artemisinin] |  |  |  |  | 0.775 ng/mL (≈ 1.99 nM) | 0.975 ng/mL (≈ 2.5 nM) | 0.64 ng/mL (≈ 1.64 nM) | 0.99 ng/mL (≈ 2.54 nM) |  | 
3 | C[C@@H]1CC[C@H]2[C@@H](C)C(=O)N(Cc3ccc(F)cc3)[C@@H]3O[C@@]4(C)CC[C@@H]1[C@@]23OO4 [Example 4] |  |  |  |  |  |  |  |  | 0.31 ng/mL | 1.13 ng/mL
4 | C[C@@H]1CC[C@H]2[C@@H](C)C(=O)N(Cc3cccc(F)c3)[C@@H]3O[C@@]4(C)CC[C@@H]1[C@@]23OO4 [Example 5] |  |  |  |  | 0.58 ng/mL (≈ 1.49 nM) | 0.95 ng/mL (≈ 2.44 nM) | 0.79 ng/mL (≈ 2.03 nM) | 1.26 ng/mL (≈ 3.24 nM) |  | 
5 | C[C@@H]1CC[C@H]2[C@@H](C)C(=O)N(Cc3ccccc3)[C@@H]3O[C@@]4(C)CC[C@@H]1[C@@]23OO4 [Example 6] |  |  |  |  | 3.8 ng/mL (≈ 10.2 nM) | 4.68 ng/mL (≈ 12.6 nM) | 3.62 ng/mL (≈ 9.74 nM) | 6.68 ng/mL (≈ 18 nM) |  | 
